Experimental data taken from patent publication US20110257236A1, “SOLID SOLUTION OF VALINE, ISOLEUCINE, LEUCINE AND ITS MANUFACTURING METHOD” (AJINOMOTO CO., INC., priority 2008, published 2011).

Columns and labels:
[1] = Dissolution speed: time until 1 g of powder dissolves completely in 100 ml warm water at 50° C., stirring 550 rpm; type: physicochemical
Description: (§1) As to the dissolution speed, 1 g of powder was dropped into 100 ml of warm water at 50° C. with stirring at a number of revolutions of 550 rpm (using a 200 ml beaker and a magnetic stirrer), and the time until dissolving completely was measured. The time was employed as an indicator of the dissolution speed.
as §1, with “C. or water at ordinary temperature” for “C.”, “A mean value of twice measurement” for “The time”

[2] = Dissolution speed: time until 1 g of powder dissolves completely in 100 ml water at ordinary temperature, stirring 550 rpm; type: physicochemical; conditions: Table 4, 25 degrees (ordinary temperature), 1 g in 100 ml water, mean of twice measurement
Description: as §1, with “C. or water at ordinary temperature” for “C.”, “A mean value of twice measurement” for “The time”

[3] = Mean particle size D50 by digital image analysis type particle size distribution meter; type: physicochemical
Description: The size of the solid solution of the invention is preferably 50-1000 μm as a mean particle size. The mean particle size as used herein refers to the number median particle size of sieve diameter D50. In view of dissolution speed taking melting ability in the mouth of solid foods and usability as solid beverages into consideration, too large crystals are unsuitable for practical use. Too small crystals are also unsuitable, due to being choked by dusting upon eating and dusting loss upon manufacturing. As to the mean particle size, D50 was measured by a digital image analysis type particle size distribution meter (Ana Tec As Norway). […]

[4] = at 20° C.; water; cited from earlier work
[5] = Table 1, 1 g in 100 ml warm water at 50° C., time until dissolving completely
[6] = Table 5, 50 degrees, 1 g in 100 ml warm water, mean of twice measurement

Structure (SMILES)	Dissolution Speed [1, 5] [s]	Dissolution Speed [1, 6] [s]	Dissolution Speed [2] [s]	Mean Particle Size ([3]; Table 1) [μm]	Mean Particle Size ([3]; Table 4) [μm]	Mean Particle Size ([3]; Table 5) [μm]	solubility [4] [g]
CC(C)C[C@H](N)C(=O)O [Leu, L-leucine]	130	130	320	280	280	280	2.38
CC[C@H](C)[C@H](N)C(=O)O [Ile, L-isoleucine]	129	128.5	287	400	400	400	4.02
CC(C)[C@H](N)C(=O)O [Val, L-valine]	118	117.5	142	210	210	210	5.75
